How the values were obtained:
Aprataxin-(33-232) = target: T1, Aprataxin-(33-232) (Schizosaccharomyces pombe, UniProt O74859); test: X-ray crystal structure, […] Å; type: binding; details: co-crystallised with 5 mM GMP, pH 8.0, active site of protomer B
T1 construct: gene hnt3; catalytic domain aa 33-232 (HIT domain + zinc finger), His10Smt3 tag cut by Ulp1, tag-free; E. coli BL21(DE3); two protomers per asymmetric unit
T1 sequence (O74859 33-232): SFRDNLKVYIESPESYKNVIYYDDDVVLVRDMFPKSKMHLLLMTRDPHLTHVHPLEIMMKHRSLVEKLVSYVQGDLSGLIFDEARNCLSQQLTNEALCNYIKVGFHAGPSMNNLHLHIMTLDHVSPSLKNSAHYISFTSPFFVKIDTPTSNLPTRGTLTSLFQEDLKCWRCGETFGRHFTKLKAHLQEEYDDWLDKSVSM

[1] = target: T2, aprataxin-(33-232), catalytic domain (HIT + Zn finger) (Schizosaccharomyces pombe, UniProt O74859 33-232); test: X-ray crystallography (2.25 A, P321); Zn2+, guanosine in active site; complementary 3'-PO4 strand … was in the mix but not in the crystal; Crystallization: aprataxin-(33-232) with 5 mM guanosine and 1.2 mM of each 10-mer, mixed with 15% PEG-3350, 0.15 M magnesium acetate; pH and temperature not given in the material; details: protein: recombinant; chain copies: 2; two copies of the same strand; blunt 10-nt duplex, 8/10 mismatches, only terminal G:C pairs canonical
T2 sequence: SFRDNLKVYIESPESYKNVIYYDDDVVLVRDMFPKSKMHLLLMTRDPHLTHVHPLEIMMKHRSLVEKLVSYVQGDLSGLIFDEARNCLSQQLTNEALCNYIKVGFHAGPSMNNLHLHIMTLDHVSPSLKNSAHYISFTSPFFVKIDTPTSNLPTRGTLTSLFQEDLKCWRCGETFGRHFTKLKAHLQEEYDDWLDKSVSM

Nc1nc2c(ncn2[C@@H]2O[C@H](COP(=O)(O)O)[C@@H](O)[C@H]2O)c(=O)[nH]1 [GMP]
X-ray crystal structure, 1.5 Å (Aprataxin-(33-232); anti conformation): The refined model included guanosine in the active site of the A protomer and GMP

Nc1nc2c(ncn2[C@@H]2O[C@H](CO)[C@@H](O)[C@H]2O)c(=O)[nH]1 [guanosine]
X-ray crystal structure, 1.5 Å (Aprataxin-(33-232); anti conformation crystal, grown with 5 mM GMP (no guanosine added), guanosine modelled in active site of protomer A, anti conformatio): Difference density allowed placement of guanosine in the active site of the A protomer

B1: 10-mer self-paired mismatched duplex HO-GAATCATAAC-OH (dsDNA)
DNA 1: GAATCATAAC
DNA 2: GAATCATAAC
modifications: 5'-OH and 3'-OH ends
binding result [1]: binds

— paper PMC4499129, “DNA3′pp5′G de-capping activity of aprataxin: effect of cap nucleoside analogs and structural basis for guanosine recognition” (Nucleic Acids Research, 2015)
